Results reported in patent US11617748B2, “Meclozine derivatives and diclazuril derivatives for use in the prevention and/or the treatment of disorders associated to the inflammation induced by P. acnes” (priority 2016, dated 2023).
Counter-ions that a name gives are not always drawn.

Experiments:
Type in all cases: cell-based, human
IL-8 production [1] = test: P. acnes-induced IL-8 production in HaCaT keratinocytes (ELISA); details: for decrease of IL-8 production at 6.25 μM / Dose-dependent inhibition of IL-8 production by keratinocytes stimulated by P. acnes pre-treated with meclozine analogues: 24 h pre-treatment; for decrease of IL-8 production at 6.25 μM: comparison with acne drugs (FIG. 8A); for effect on IL-8 production at 6.25 μM, in words: 24 h pre-treatment (FIG. 8A); for Dose-dependent inhibition of IL-8 production by keratinocytes stimulated by P. acnes pre-treated with meclozine analogues: 10 μM
Experimental: Bacterial strain and conditions of growth. P. acnes strain 6919 was obtained from the American Type Culture Collection (Manassas, Va.) and P. acnes strains RON and PIE were isolated from patient with joint infection. All strains were grown under anaerobic conditions in reinforced clostridial liquid and solid medium (RCM) (Difco Laboratories, Detroit, Mich.). P. acnes was transferred from the bacterial stock onto RCM agar plate and incubated for 5 days under anaerobic condition by using a GasPak™ EZ Anaerobic Container System (Becton Dickinson & Co, Sparks Md., USA). A single colony was transferred into 100 ml RCM and grown as described above. Bacterial suspension was then store frozen at −80° C. in presence of 10% glycerol final. This stock was called «start stock» and used for all the experiments. For routine culture, 100 ml of RCM was used and bacteria were harvested after 5 days at 37° C. by centrifugation at 7,000×g for 10 min at 4° C. Pellets were pooled and washed in about 30 ml of cold sterile PBS [1.5 mM KH2PO4, 2.7 mM Na2HPO4.7H2O, 0.15 M NaCl (pH 7.4)] and centrifuged again as described above. Finally, the bacterial pellet was suspended in sterile PBS (1:10 from volume culture).
(§1) Cell culture, pretreatment and stimulation. The immortalized human keratinocyte cell line HaCaT, fibroblast MRC5 were grown in Dulbecco's modified Eagle's medium-Glutamax-I (DMEM) with 1 mM sodium pyruvate. The immortalized human monocytic cell line ThP1 was grown in Roswell Park Memorial Institute 1640 Medium-Glutamax-I (RPMI). DMEM and RPMI were supplemented with 0.1% and 10% heat-inactivated fetal calf serum (Invitrogen), and an antibiotic/antimycotic solution (10 U/ml Pencillin, 10 μg/ml Streptomycin, 0.25 μg/ml Amphoterin) at 37° C. in humidified atmosphere containing 5% CO2 as described (Life Technologie). Primary human keratinocytes (NHDK) and fibroblast (HDF) were grown in the KGM-Gold and in FGM-2 Bullet Kit, respectively, as described by the manufacturer (Lonza). The immortalized cell lines were routinely tested to assess the absence of Mycoplasma infection. Cells, cultivated in 6- or 96-well polystyrene plates, were pretreated with appropriate molecule solution for 1 to 48 h at 37° C. in the dark at the appropriate concentration. Then, for stimulation, cells were incubated for 15 min to 24 h with the P. acnes suspension adjusted at the appropriate concentration at 37° C. in 5% CO2. For experiences using an in vitro model of psoriasis, the primary human keratinocytes (NHDK) were grown in culture medium for 24 hours. The medium was removed and replaced with culture medium containing meclozine, diclazuril and JAK inhibitor (used as positive control) at the concentrations of 0.39, 0.78, 1.56, 3.12, 6.25 and 12.5 μM and the pro-inflammatory mixture M5 (combination of IL-17A, OSM, TNF-α, IL-22, IL-1α at 10 ng/ml) was added to the cells followed by an incubation for 48 or 72 hours.
(§2) ELISA. Human IL-1β, IL-8, hBD-2 and TNF-α protein concentration were measured in the supernatants of stimulated cells using various ELISA Sets (all from Ready-Set-Go from eBioscience, except hBD-2 measurements: Human DEFB4A/BD-2 ELISA Kit from LSBio) according to the manufacturer's instructions. We used serial dilutions of recombinant human IL-1β, IL-8, hBD-2 and TNF-α for standard curve. The optical density was determined at 450 nm at a wavelength correction of 540 nm.
Both molecules, diclazuril and meclozine, were purchased separately from Sigma and tested independently on immortalized keratinocytes HaCaT cell for their capacity to inhibit the IL-8 production in a dose-dependent manner. HaCaT cells were pre-treated with diclazuril and meclozine, at the concentrations ranging from 0.39 to 50 μM, for 24 h and then stimulated with P. acnes suspension as described in Materials and Methods. The production of IL-8 was measured on culture supernatant by ELISA and the viability of cells was estimated by MTT assay (FIG. 1).

HaCaT cells = test: MTT cell viability assay on HaCaT keratinocytes; details: for Evaluation of cell viability after treatment with meclozine analogues on keratinocytes: 24 h, 10 μM
Experimental: as §1, with “The immortalized human monocytic cell line ThP1 was grown in Roswell Park Memorial Institute 1640 Medium-Glutamax-I (RPMI).” left out, “hours.” for “hours. The medium was removed and replaced with culture medium containing meclozine, diclazuril and JAK inhibitor (used as positive control) at the concentrations of 0.39, 0.78, 1.56, 3.12, 6.25 and 12.5 μM and the pro-inflammatory mixture M5 (combination of IL-17A, OSM, TNF-α, IL-22, IL-1α at 10 ng/ml) was added to the cells followed by an incubation for 48 or 72 hours.”
Cell viability assays. Viability of cells was estimated by using the MTT assay where cells were incubated with a 0.2% MTT solution in cell culture medium for 4 h at 37° C. The MTT solution was then discarded and DMSO added to solubilize the MTT-formazan cristals produced in living cells. After thorough mixing, the absorbance was measured at 540 nm.

IL-8 production [2] = test: P. acnes-induced IL-8 production in HaCaT keratinocytes (ELISA); details: HaCaT cells pre-treated 24 h, no P. acnes stimulation
IL-8 production [3] = test: IL-8 production by M5-stimulated NHDK, in vitro psoriasis-like model (ELISA); details: NHDK + M5, 48 h, JAK inhibitor at 6.25 μM (positive control)
Experimental: (§3) Cell culture, pretreatment and stimulation.
as §2

hBD-2 production = hBD-2 production by M5-stimulated NHDK, in vitro psoriasis-like model (ELISA); details: NHDK + M5, 48 h, JAK inhibitor at 6.25 μM (positive control)
Experimental: as §3, §2

With `COc1ccc(-c2ccc3cc(C(=O)O)ccc3c2)cc1C12CC3CC(CC(C3)C1)C2` [adapalene] the “decrease of IL-8 production at 6.25 μM” value (IL-8 production [1]; HaCaT) was 20% and the “IL-8 reduction at 12.5 μM” value (IL-8 production [1]; HaCaT, 12.5 μM, 24 h pre-treatment (FIG. 8B)) was 90%.

For `O=C(OOC(=O)c1ccccc1)c1ccccc1` [benzoyl peroxide], the “toxicity at 6.25 μM, in words (MTT)” value (HaCaT cells; HaCaT, 6.25 μM, 24 h pre-treatment (FIG. 8A)) was “no toxicity” and the “effect on IL-8 production at 6.25 μM, in words” value (“effect on IL-8 production” below) (IL-8 production [1]; HaCaT) was “very low none significative or no effect”.

In the case of `Fc1ccc(C(OCCN2CCN(CCCc3ccccc3)CC2)c2ccc(F)cc2)cc1` [GBR 12909 dihydrochloride], the “Evaluation of cell viability after treatment with meclozine analogues on keratinocytes” value (HaCaT cells; human) is reported as 78% and the “Dose-dependent inhibition of IL-8 production by keratinocytes stimulated by P. acnes pre-treated with meclozine analogues” value (IL-8 production [1]; HaCaT) is reported as 78%.

`CC[C@H]1OC(=O)[C@H](C)[C@@H](O[C@H]2C[C@@](C)(OC)[C@@H](O)[C@H](C)O2)[C@H](C)[C@@H](O[C@@H]2O[C@H](C)C[C@H](N(C)C)[C@H]2O)[C@](C)(O)C[C@@H](C)C(=O)[C@H](C)[C@@H](O)[C@]1(C)O` [erythromycine] was tested, and the “effect on IL-8 production” value (IL-8 production [1]; HaCaT) was “very low none significative or no effect”.

With `CN1CCN(C(c2ccccc2)c2ccc(Cl)cc2)CC1` (centres unmarked) [Chlorcyclizine hydrochloride] the “Evaluation of cell viability after treatment with meclozine analogues on keratinocytes” value (HaCaT cells; human) was 81% and the “Dose-dependent inhibition of IL-8 production by keratinocytes stimulated by P. acnes pre-treated with meclozine analogues” value (IL-8 production [1]; HaCaT) was 54%.

With `Cc1cc(-n2ncc(=O)[nH]c2=O)cc(Cl)c1Sc1ccc(Cl)cc1` [RCL PH000645-PH, PH000645-PH] the “IL-8 production in pretreated cells without being stimulated” value (IL-8 production [2]) was “no change” and the IC50 (IL-8 production [1]; Homo sapiens, HaCaT cells pre-treated 24 h, then stimulated with P. acnes, read-out: IC50 of inhibition of IL-8 production) was about 3000 nM.

`COc1ccc(CN2CCN(C(c3ccc(F)cc3)c3ccc(F)cc3)CC2)c(OC)c1OC` [Lomerizine] was tested, and the “Evaluation of cell viability after treatment with meclozine analogues on keratinocytes” value (HaCaT cells; HaCaT, MTT) was 95% and the “Dose-dependent inhibition of IL-8 production by keratinocytes stimulated by P. acnes pre-treated with meclozine analogues” value (IL-8 production [1]; HaCaT) was 58%.

`CCC[C@@H]1C[C@@H](C(=O)N[C@@H]([C@H]2O[C@H](SC)[C@H](O)[C@@H](O)[C@H]2O)[C@H](C)Cl)N(C)C1` [clindamycine] was tested, and the “effect on IL-8 production” value (IL-8 production [1]; HaCaT) was “very low none significative or no effect”.

With `Cc1cccc(C)c1NC(=O)CN1CCN(CCCC(c2ccc(F)cc2)c2ccc(F)cc2)CC1` [Lidoflazine] the “Evaluation of cell viability after treatment with meclozine analogues on keratinocytes” value (HaCaT cells; human) was 107% and the “Dose-dependent inhibition of IL-8 production by keratinocytes stimulated by P. acnes pre-treated with meclozine analogues” value (IL-8 production [1]; HaCaT) was 65%.

With `CC1=C(/C=C/C(C)=C/C=C/C(C)=C\C(=O)O)C(C)(C)CCC1` [isotretinoin] the “decrease of IL-8 production at 6.25 μM” value (IL-8 production [1]; HaCaT) was 5%.

With `CC1=C(/C=C/C(C)=C/C=C/C(C)=C/C(=O)O)C(C)(C)CCC1` [retinoic acid] the “decrease of IL-8 production at 6.25 μM” value (IL-8 production [1]; HaCaT) was 5%.

In the case of Jak Inhibitor I, the “inhibition of M5-stimulated IL-8 production” value (IL-8 production [3]) is reported as 49% and the “inhibition of stimulated hBD-2 production” value (hBD-2 production) is reported as 38%.
